# Assay results taken from patent US8258114B2, “Modulation of glucose-6-phosphatase translocase expression” (Isis Pharmaceuticals, Inc., priority 2004, dated 2012).
# Oligonucleotides are written 5' to 3', each unit as a sugar letter and its base; * is a phosphorothioate linkage, no mark a phosphodiester; rarer units and linkages stand in square brackets, end groups in braces. Plain capitals give the bases only. e = 2'-O-(2-methoxyethyl) (MOE); [5mC] = 5-methylcytosine; d = 2'-deoxy (DNA)
# Test system: mouse glucose-6-phosphatase translocase mRNA
# Assay: Antisense inhibition of mouse glucose-6-phosphatase translocase mRNA in primary mouse hepatocytes, 50 nM (Table 5)
# Format: cell-based
# Details: 50 nM oligonucleotide, mRNA by real-time PCR, normalized with RIBOGREEN
# Description: Primary mouse hepatocytes were prepared from CD-1 mice purchased from Charles River Labs. Primary mouse hepatocytes were routinely cultured in Hepatocyte Attachment Media supplemented with 10% fetal bovine serum (Invitrogen Life Technologies, Carlsbad, Calif.), 250 nM dexamethasone, and 10 nM bovine insulin (Sigma-Aldrich, St. Louis, Mo.). Cells were seeded into 96-well plates (Falcon-Primaria #353872, BD Biosciences, Bedford, Mass.) at a density of approximately 4,000-6,000 cells/well for use in oligomeric compound transfection experiments.
# Quantitation of glucose 6-phosphatase translocase mRNA levels was accomplished by real-time quantitative PCR using the ABI PRISM™ 7600, 7700, or 7900 Sequence Detection System (PE-Applied Biosystems, Foster City, Calif.) according to manufacturer's instructions.
# Prior to quantitative PCR analysis, primer-probe sets specific to the target gene being measured were evaluated for their ability to be “multiplexed” with a GAPDH amplification reaction. After isolation the RNA is subjected to sequential reverse transcriptase (RT) reaction and real-time PCR, both of which are performed in the same well. RT and PCR reagents were obtained from Invitrogen Life Technologies (Carlsbad, Calif.). […] The RT reaction was carried out by incubation for 30 minutes at 48° C. Following a 10 minute incubation at 95° C. to activate the PLATINUM® Taq, 40 cycles of a two-step PCR protocol were carried out: 95° C. for 15 seconds (denaturation) followed by 60° C. for 1.5 minutes (annealing/extension).
# Gene target quantities obtained by RT, real-time PCR were normalized using either the expression level of GAPDH, a gene whose expression is constant, or by quantifying total RNA using RiboGreen™ (Molecular Probes, Inc. Eugene, Oreg.). GAPDH expression was quantified by RT, real-time PCR, by being run simultaneously with the target, multiplexing, or separately. Total RNA was quantified using RiboGreen™ RNA quantification reagent (Molecular Probes, Inc. Eugene, Oreg.).
# A series of oligomeric compounds was designed to target different regions of mouse glucose-6-phosphatase translocase, using published sequences cited in Table 1. All compounds in Table 5 are chimeric oligonucleotides (“gapmers”) 20 nucleotides in length, composed of a central “gap” region consisting of 10 2′-deoxynucleotides, which is flanked on both sides (5′ and 3′) by five-nucleotide “wings”. The wings are composed of 2′-O-(2-methoxyethyl) nucleotides, also known as 2′-MOE nucleotides. The internucleoside (backbone) linkages are phosphorothioate throughout the oligonucleotide. All cytidine residues are 5-methylcytidines. The compounds were analyzed for their effect on gene target mRNA levels by quantitative real-time PCR as described in other examples herein, using the following primer-probe set designed to hybridize to mouse glucose-6-phosphatase translocase: • forward primer: […] (SEQ ID NO: 66) • reverse primer: CCATCCCAGCCATCATGAG (SEQ ID NO: 67) and the PCR probe was: FAM-[…]-TAMRA (SEQ ID NO: 68) where FAM is the fluorescent reporter dye and TAMRA is the quencher dye. Mouse target gene quantities were normalized by quantifying total RNA using RIBOGREEN™.
# Data are from experiments in which primary mouse hepatocytes were treated with 50 nM of the antisense oligonucleotides of the present invention. A reduction in expression is expressed as percent inhibition in Table 5. If present, “N.D.” indicates “not determined”. The target regions to which these oligomeric compounds are inhibitory are herein referred to as “validated target segments.”
row,Sequence,% Inhib [%]
1,CTGATGGCGTAGGCTGCCGA (e[5mC]*eT*eG*eA*eT*dG*dG*d[5mC]*dG*dT*dA*dG*dG*d[5mC]*dT*eG*e[5mC]*e[5mC]*eG*eA; antisense) [ISIS 148950],0
2,CTGCTGGCCCACTCCAGTAC (e[5mC]*eT*eG*e[5mC]*eT*dG*dG*d[5mC]*d[5mC]*d[5mC]*dA*d[5mC]*dT*d[5mC]*d[5mC]*eA*eG*eT*eA*e[5mC]; antisense) [ISIS 148940],61
3,CTTGTCCAGAGCGATCTCAT (e[5mC]*eT*eT*eG*eT*d[5mC]*d[5mC]*dA*dG*dA*dG*d[5mC]*dG*dA*dT*e[5mC]*eT*e[5mC]*eA*eT; antisense) [ISIS 148945],35
4,CTTTCCGTGTCCTGCCAGTA (e[5mC]*eT*eT*eT*e[5mC]*d[5mC]*dG*dT*dG*dT*d[5mC]*d[5mC]*dT*dG*d[5mC]*e[5mC]*eA*eG*eT*eA; antisense) [ISIS 148987],45
5,GAAGGGTATAGGAGACACCC (eG*eA*eA*eG*eG*dG*dT*dA*dT*dA*dG*dG*dA*dG*dA*e[5mC]*eA*e[5mC]*e[5mC]*e[5mC]; antisense) [ISIS 148997],57
6,GACTGCTCCTGCTTGCAGCT (eG*eA*e[5mC]*eT*eG*d[5mC]*dT*d[5mC]*d[5mC]*dT*dG*d[5mC]*dT*dT*dG*e[5mC]*eA*eG*e[5mC]*eT; antisense) [ISIS 148938],50
7,GAGCCCCAAATCGTCCTTGT (eG*eA*eG*e[5mC]*e[5mC]*d[5mC]*d[5mC]*dA*dA*dA*dT*d[5mC]*dG*dT*d[5mC]*e[5mC]*eT*eT*eG*eT; antisense) [ISIS 148947],37
8,GAGCTACCCACAAGGGCGGA (eG*eA*eG*e[5mC]*eT*dA*d[5mC]*d[5mC]*d[5mC]*dA*d[5mC]*dA*dA*dG*dG*eG*e[5mC]*eG*eG*eA; antisense) [ISIS 148965],16
9,GAGGTTCCACACAAGTTGGG (eG*eA*eG*eG*eT*dT*d[5mC]*d[5mC]*dA*d[5mC]*dA*d[5mC]*dA*dA*dG*eT*eT*eG*eG*eG; antisense) [ISIS 148978],34
10,GCAGCCGCTCTCCTTTCCGT (eG*e[5mC]*eA*eG*e[5mC]*d[5mC]*dG*d[5mC]*dT*d[5mC]*dT*d[5mC]*d[5mC]*dT*dT*eT*e[5mC]*e[5mC]*eG*eT; antisense) [ISIS 148988],73
11,GCCAGTGTGCTGCGCCAGCT (eG*e[5mC]*e[5mC]*eA*eG*dT*dG*dT*dG*d[5mC]*dT*dG*d[5mC]*dG*d[5mC]*e[5mC]*eA*eG*e[5mC]*eT; antisense) [ISIS 148957],57
12,GCCCCAGTCTGTACAGCAAG (eG*e[5mC]*e[5mC]*e[5mC]*e[5mC]*dA*dG*dT*d[5mC]*dT*dG*dT*dA*d[5mC]*dA*eG*e[5mC]*eA*eA*eG; antisense) [ISIS 148963],55
13,GCCGCAAATATGACAGTGCG (eG*e[5mC]*e[5mC]*eG*e[5mC]*dA*dA*dA*dT*dA*dT*dG*dA*d[5mC]*dA*eG*eT*eG*e[5mC]*eG; antisense) [ISIS 148942],17
14,GCTCACAAACTTGCTGATGG (eG*e[5mC]*eT*e[5mC]*eA*d[5mC]*dA*dA*dA*d[5mC]*dT*dT*dG*d[5mC]*dT*eG*eA*eT*eG*eG; antisense) [ISIS 148951],57
15,GCTGAAGGGTAAGCCAGCCA (eG*e[5mC]*eT*eG*eA*dA*dG*dG*dG*dT*dA*dA*dG*d[5mC]*d[5mC]*eA*eG*e[5mC]*e[5mC]*eA; antisense) [ISIS 148980],43
16,GCTTTATTCGATCTATACAA (eG*e[5mC]*eT*eT*eT*dA*dT*dT*d[5mC]*dG*dA*dT*d[5mC]*dT*dA*eT*eA*e[5mC]*eA*eA; antisense) [ISIS 149009],5
17,GGATATTTCGAAGCAAGAAG (eG*eG*eA*eT*eA*dT*dT*dT*d[5mC]*dG*dA*dA*dG*d[5mC]*dA*eA*eG*eA*eA*eG; antisense) [ISIS 148983],43
18,GGCACTGATGTAGGAGCTAC (eG*eG*e[5mC]*eA*e[5mC]*dT*dG*dA*dT*dG*dT*dA*dG*dG*dA*eG*e[5mC]*eT*eA*e[5mC]; antisense) [ISIS 148966],54

row,Sequence,% Inhib [%]
1,GGCAGAAACCACAGGCCATT (eG*eG*e[5mC]*eA*eG*dA*dA*dA*d[5mC]*d[5mC]*dA*d[5mC]*dA*dG*dG*e[5mC]*e[5mC]*eA*eT*eT; antisense) [ISIS 149000],56
2,GGCTGCTTGTGATGAGCCCC (eG*eG*e[5mC]*eT*eG*d[5mC]*dT*dT*dG*dT*dG*dA*dT*dG*dA*eG*e[5mC]*e[5mC]*e[5mC]*e[5mC]; antisense) [ISIS 148949],52
3,GGGACCTCATTAGCCACTGG (eG*eG*eG*eA*e[5mC]*d[5mC]*dT*d[5mC]*dA*dT*dT*dA*dG*d[5mC]*d[5mC]*eA*e[5mC]*eT*eG*eG; antisense) [ISIS 148993],55
4,GGGACTGAGGTATTGGCATC (eG*eG*eG*eA*e[5mC]*dT*dG*dA*dG*dG*dT*dA*dT*dT*dG*eG*e[5mC]*eA*eT*e[5mC]; antisense) [ISIS 149003],9
5,GGGTACGGCAGAAACCACAG (eG*eG*eG*eT*eA*d[5mC]*dG*dG*d[5mC]*dA*dG*dA*dA*dA*d[5mC]*e[5mC]*eA*e[5mC]*eA*eG; antisense) [ISIS 149001],42
6,GTGATGAGCCCCAAATCGTC (eG*eT*eG*eA*eT*dG*dA*dG*d[5mC]*d[5mC]*d[5mC]*d[5mC]*dA*dA*dA*eT*e[5mC]*eG*eT*e[5mC]; antisense) [ISIS 148948],52
7,GTGGAGACACAGAAACGTAA (eG*eT*eG*eG*eA*dG*dA*d[5mC]*dA*d[5mC]*dA*dG*dA*dA*dA*e[5mC]*eG*eT*eA*eA; antisense) [ISIS 148992],51
8,TACAGCAAGTCTTTACTCCG (eT*eA*e[5mC]*eA*eG*d[5mC]*dA*dA*dG*dT*d[5mC]*dT*dT*dT*dA*e[5mC]*eT*e[5mC]*e[5mC]*eG; antisense) [ISIS 148962],47
9,TACTCGGAAGAGATACGTGG (eT*eA*e[5mC]*eT*e[5mC]*dG*dG*dA*dA*dG*dA*dG*dA*dT*dA*e[5mC]*eG*eT*eG*eG; antisense) [ISIS 148974],8
10,TATAGGAGACACCCTGAATT (eT*eA*eT*eA*eG*dG*dA*dG*dA*d[5mC]*dA*d[5mC]*d[5mC]*d[5mC]*dT*eG*eA*eA*eT*eT; antisense) [ISIS 148996],−3
11,TATTGGCATCAATTTTGCCC (eT*eA*eT*eT*eG*dG*d[5mC]*dA*dT*d[5mC]*dA*dA*dT*dT*dT*eT*eG*e[5mC]*e[5mC]*e[5mC]; antisense) [ISIS 149002],22
12,TCACTCTCCCTTCTTGGATA (eT*e[5mC]*eA*e[5mC]*eT*d[5mC]*dT*d[5mC]*d[5mC]*d[5mC]*dT*dT*d[5mC]*dT*dT*eG*eG*eA*eT*eA; antisense) [ISIS 148984],60
13,TCATGAGAGTGGTGGACTCC (eT*e[5mC]*eA*eT*eG*dA*dG*dA*dG*dT*dG*dG*dT*dG*dG*eA*e[5mC]*eT*e[5mC]*e[5mC]; antisense) [ISIS 149005],27
14,TCATGCTGGTTGACAACACA (eT*e[5mC]*eA*eT*eG*d[5mC]*dT*dG*dG*dT*dT*dG*dA*d[5mC]*dA*eA*e[5mC]*eA*e[5mC]*eA; antisense) [ISIS 148955],36
15,TCCTCTCCTCCCTTAGGGAC (eT*e[5mC]*e[5mC]*eT*e[5mC]*dT*d[5mC]*d[5mC]*dT*d[5mC]*d[5mC]*d[5mC]*dT*dT*dA*eG*eG*eG*eA*e[5mC]; antisense) [ISIS 149004],42
16,TCGTCCTTGTCCAGAGCGAT (eT*e[5mC]*eG*eT*e[5mC]*d[5mC]*dT*dT*dG*dT*d[5mC]*d[5mC]*dA*dG*dA*eG*e[5mC]*eG*eA*eT; antisense) [ISIS 148946],70
17,TCTCTTTAGTGCCTGGATCT (eT*e[5mC]*eT*e[5mC]*eT*dT*dT*dA*dG*dT*dG*d[5mC]*d[5mC]*dT*dG*eG*eA*eT*e[5mC]*eT; antisense) [ISIS 148937],52
